Reference: patent publication US20040204375A1, “Gene delivery compounds” (priority 2001, published 2004)

Tests used:
HT29 cells [1] = test: Adenoviral LacZ gene transfer to confluent HT29 cells, β-galactosidase assay (Example 2); format: cell-based, human; details: for activation of adenovirus gene transfer: HT29 cells, LacZ adenovirus MOI 0.1-10, 4 hours, assay 48 hours later
Description: HT29 or HeLa cells are grown in 96-well plates. The HT29 cells are seeded at near confluency, about 300,000 cells per well, and infected with adenovirus 3-4 days later. Confluent HeLa cells are used as a positive control. […] A replication deficient adenovirus encoding the E. coli LacZ gene is applied at an MOI of 0.1-10 to wells of cells in low serum medium for 4 hours at 37° C. Gene transfer activating compounds are incubated along with the virus at concentrations of 10 micromolar or 100 micromolar. A set of cells is incubated with virus but no gene transfer activating compound. Forty-eight hours later, the cells are assayed for β-galactosidase by standard techniques. […] FIGS. 2 and 6 illustrate the results using compound 6975 and 8496 respectively.

HT29 cells [2] = test: Screening assay for gene transfer activators: adenovirus luciferase or β-galactosidase constructs on confluent cells with test compound; format: cell-based, human; set-up: key to Activity (gene transfer activator): +++ = more active; ++ = active; + = less active; details: for Activity (gene transfer activator): gene transfer in presence vs absence of test compound
Description: A gene transfer activating compound is identified by an assay which determines whether gene transfer occurs to a greater extent in the presence of a test compound than in the absence. For example, confluent cells plated in multi-well cell culture units are exposed to adenovirus luciferase or β-galactosidase constructs in the presence of the test compound. The test compound is administered to cells before, after or concurrently with the adenovirus. The extent of gene transfer is measured by visual inspection or quantitative measurement of luciferase or β-galactosidase in the presence and absence of the test compound.
HT29 cells are grown in 96-well plates. The cells are seeded at near confluency, about 300,000 cells per well, and infected with adenovirus 3-4 days later. […] For screening purposes, cells are grown on plastic. […] The activity of candidate compounds is also confirmed using polarized monolayers grown on filters. Once confluent, HT29 cells are very difficult to transduce with adenoviral constructs. Fewer than 1 in 100 cells express adenoviral transgenes at multiplicity of infection (MOI) of approximately 50. A replication deficient adenovirus encoding firefly luciferase or the E. coli LacZ gene (β-galactosidase) at an MOI of 50 for each well of cells in low serum medium is applied for 4 hours at 37° C. Test drugs are incubated along with the virus. Forty-eight hours later, the cells are assayed for β-galactosidase or luciferase by standard techniques. For example, β-galactosidase is assayed by incubating cells with a β-galactosidase substrate such as 1 mg/ml X-gal 5-bromo-4-chloro-3-indolyl B-D-galactopyranoside (X-gal), overnight at 37° C. When X-gal is cleaved by β-galactosidase, a bright blue precipitate is formed. The intensity of the blue color can be estimated visually or measured by optical densitometry to evaluate the efficiency of adenoviral transduction. Luciferase is assayed using a commercially available kit (Promega) which allows quantitative measurements of adenoviral gene transfer.

[3] = test system: IB3 cystic fibrosis airway epithelial cells; test: Adenoviral luciferase gene transfer to IB3 cells (Example 3); format: cell-based; details: 100 micromolar compound, MOI 5 or 10, FIG. 3
Description: IB3 cystic fibrosis airway epithelial cells are grown in 96-well plates. The cells are seeded at near confluency, about 300,000 cells per well, and infected with adenovirus 3-4 days later. A replication deficient adenovirus encoding luciferase is applied at an MOI of 5 or 10 to wells of cells in low serum medium for 4 hours at 37° C. Compound 6975 is incubated along with the virus at a concentration of 100 micromolar. A set of cells is incubated with virus but no gene transfer activating compound. Forty-eight hours later, the cells are assayed for luciferase by standard techniques. FIG. 3 presents the results of this assay in a graph.

[4] = test system: PC-3 human prostate cell tumors; test: In vivo adenoviral gene transfer to prostate tumors, PNP activity (Example 5); set-up: species or system mice; details: 1 mM compound, 2-3×10^9 adenoviral particles per tumor, FIG. 5
Description: Prostate tumors are established in suitable hosts and PNP activity assayed in the presence or absence of adenovirus. Approximately 2-3×10^9 adenoviral particles are administered per tumor in the presence of 1 mM of compound 6975 or in the absence of the compound. Transgene activity is also assayed in livers. Further details of the method are described in (3).

HT29 cells [5] = test: Adenoviral LacZ gene transfer to HT29 cells, comparison with EGTA (Example 4); format: cell-based, human; details: 100 micromolar compound vs 5 millimolar EGTA, MOI 10
Description: HT29 cells are grown in 96-well plates. The cells are seeded at near confluency, about 300,000 cells per well, and infected with adenovirus 3-4 days later. […] A replication deficient adenovirus encoding LacZ is applied at an MOI of 10 to wells of cells in low serum medium for 4 hours at 37° C. Compound 6975 is incubated along with the virus at a concentration of 100 micromolar. A second set of cells is incubated with virus but no gene transfer activating compound and a third set of cells is incubated with virus and 5 millimolar EGTA. Forty-eight hours later, the cells are assayed for […] by standard techniques.

| SMILES | activation of adenovirus gene transfer (HT29 cells [1]; 10 micromolar compound) | activation of adenovirus gene transfer (HT29 cells [1]; 100 micromolar compound) | Activity (gene transfer activator) (HT29 cells [2]) | other results |
| --- | --- | --- | --- | --- |
| [H]/N=c1/ncn([C@@H]2O[C@H](CO)[C@@H](O)[C@H]2O)c2[nH]cnc12 [Compound 8496] | show activation of adenovirus gene transfer | show activation of adenovirus gene transfer | +++ | adenoviral gene transfer of LacZ to HT29 cells (HT29 cells [1]; FIG. 6): activates adenoviral gene transfer of LacZ to HT29 cells |
| C/C(=N/N=C(/N)NO)c1ccccn1 [Compound 7036] | – | – | ++ | – |
| C/C(=N/NC(=N)NCc1ccccn1)c1ccccn1 [Compound 7064] | – | – | + | – |
| [H]/N=C(\N)N/N=C(\C)c1ccccn1 [Compound 6883] | – | – | + | – |
| [H]/N=C(/N/N=C(\C)c1ccccn1)Nc1ccccc1 [Compound 6898] | – | – | + | – |
| [H]/N=C(/N/N=C(\C)c1ccccn1)Nc1ccccc1 [Compound 6975] | show activation of adenovirus gene transfer | show activation of adenovirus gene transfer | +++ | adenoviral gene transfer of luciferase to IB3 cells [3]: activates adenoviral gene transfer of luciferase; in vivo adenoviral gene transfer to tumors [4]: activates in vivo adenoviral gene transfer to PC-3 human prostate cell tumors in mice; activating adenovirus-mediated gene transfer and expression in cells (HT29 cells [2]; FIG. 1): effective in activating adenovirus-mediated gene transfer and expression in cells; adenovirus gene transfer efficiency compared with EGTA (HT29 cells [5]): activates adenovirus gene transfer more efficiently than EGTA |
